What was measured:
[1] = target: T1, recombinant mPBR (Mus musculus, UniProt P50637); assay: 3H-PK 11195 radioligand binding to IPTG-induced recombinant PBR in E. coli (Scatchard analysis); conditions: 3H-PK 11195 binding, IPTG-induced E. coli transfected with mouse PBR cDNA
T1 construct: inferred from vector pET15b with insertion at NdeI) (N); made in house; host or cells: Escherichia coli BL21(DE3), IPTG-induced; whole bacteria or bacterial membranes
Description: Binding specificity of the IPTG-induced PBR in E. coli was determined in binding studies where specific binding of ^3H-PK 11195 (1.0 nM) was measured in the presence of the indicated concentrations of the indicated ligands.
Radioligand binding assays- ^3H-1- (2-chlorophenyl)-N-methyl-N-(1-methyl-propyl)-3-isoquinolinecarboxamide (PK 11195) binding studies were performed as we previously described (Papadopoulos, V. et al. 1990, J. Biol. Chem. 265: 3772-3779; Garnier, M. et al. 1994, Mol. Pharm. 45:201-211). The dissociation constant (Kd) and the number of binding sites (Bmax) were determined by Scatchard plot analysis of the data using the LIGAND program (Munson, P. J. and Rodbard, D. 1980, Anal. Biochem. 107:220-239).

[2] = target: T2, PBR (Mus musculus, UniProt P50637); assay: Ligand-induced release of 3H-cholesterol from membranes of IPTG-induced transformed bacteria; format: biochemical; conditions: Fig. 3F
T2 construct: inferred from vector pET15b with insertion at NdeI) (N); made in house; host or cells: Escherichia coli BL21(DE3), IPTG-induced; whole bacteria or bacterial membranes
Description: ^3H-Cholesterol uptake by E. coli cells was examined using the indicated concentrations of control or IPTG-treated transformed bacteria incubated in the presence of 6.7 nM ^3H-cholesterol (50.0 Ci/mmol) for 60 min at 37°C. Specific cholesterol uptake is defined as IPTG-induced minus basal values, E. coli protoplasts were prepared from cells grown in LB at 37°C to the logarithmic phase of growth and centrifuged at 10,000g for 5 min. The cells were washed twice in 10mM Tris-HCl buffer [pH8.0] and the pellet was resuspended in a solution containing 20%(w/w) sucrose and 0.1M Tris-HCl [pH8.0]. The cells were then suspended in 1ml of buffer per 10 OD450 and mixed. Within 1 min lysozyme was added from a 2mg/ml stock solution in distilled water to a final concentration of 100 ug/ml at 37°C, and stirring was continued for the next 12 min. The cell suspension was diluted 1:10 with 0.1M Na2EDTA prewarmed to 37°C. Continuous stirring and slow dilution over 2.5 min prevented cell lysis. More than 99% of the cells became spherical within 10 minutes (Weiss, R. L. 1978, Meth. Cell Biol. 20:141-147).

[3] = system: isolated mitochondria; conditions: cited from earlier work

Bmax [1] [pmol/mg protein]	Kd [1] [nM]	Compound	release of cholesterol from cholesterol-loaded bacterial membranes [2]	ability to mimic the effect of DBI on mitochondrial steroidogenesis [3]
0.23	1.1	CCC(C)N(C)C(=O)c1cc2ccccc2c(-c2ccccc2Cl)n1 (centres unmarked) [PK 11195, 1-(2-chlorophenyl)-N-methyl-N-(1-methyl-propyl)-3-isoquinolinecarboxamide]	cholesterol was liberated from the membranes	–
–	–	TTN: triakontatetrapeptide, naturally occurring processing product of DBI (KTKPSDEEMLFIYGHYKQATVGDINTERPGMLDF; Triakontatetraneuropeptide; UniProt P07108 17-50, looked up, fragment)	–	able to mimic the effect of DBI
–	–	ODN: octadecaneuropeptide (DBI33-50) (KQATVGDINTERPGMLDF; Octadecaneuropeptide; UniProt P07108 33-50, looked up, fragment)	–	not

Reference: patent publication EP1129112B1, “PEPTIDES CONTAINING A CHOLESTEROL RECOGNITION SEQUENCE AND THEIR USES” (Georgetown University, priority 1998, dated 1999)
